In patent US20060025589A1, “2-Thiohydantoine derivative compounds and use thereof for the treatment of diabetes” (priority 2002, published 2006):

What follows are compounds tested on male C57BL/KsJ-db/db mice (assay: in vivo reduction of serum glucose and triglyceride levels in diabetic db/db mice). Details: gavage, suspended in 3% gum arabic, twice daily for 10 days plus morning of day 11, doses below 200 mg/kg, generally 10 mg/kg, blood taken 4 h after last administration.
Method: The compounds of formula (I) according to the invention were subjected to pharmacological tests in order to evaluate their potential to reduce the blood glycemia level.
The in vivo studies were carried out on male C57BL/KsJ-db/db mice originating from CERJ (Route des Chênes Secs—BP 5—53940 Le Genest St Isle—France).
The animals are accommodated in cages fitted with a filter lid and have free access to an irradiated standard food and to filtered drinking water. All the equipment used (cages, feeding bottles, pipettes and shavings) is sterilized by autoclaving, irradiation or immersion in a disinfectant. The temperature of the room is maintained at 23±2° C. The light-dark cycle is 12 h.
During the acclimatization period, each animal is tagged with an electronic chip, which is implanted under anesthesia effected by the inhalation of a CO2/O2 mixture.
Groups of 8 to 10 mice are formed and the treatments start when the animals are 9 to 11 weeks old. The products are suspended in gum arabic at a concentration of 3% and administered to the animals by means of a gavage cannula for 10 days at a rate of two administrations per day, as well as on the morning of day 11. The products are tested at doses below 200 mg/kg and generally of 10 mg/kg. The animals in the control group receive the dosage vehicle only.
A blood sample is taken before treatment and then four hours after the last administration of the product. The animals are anesthetized by the inhalation of a CO2/O2 mixture and the blood is taken from the retro-orbital sinus, collected in a dry tube and kept cold. The serum is separated off by centrifugation at 2800 g (15 minutes, 4° C.) during the hour following sampling. The samples are kept at −20° C. until they are analyzed.
The serum glucose and triglyceride levels are determined on a Konélab 30 analyzer by means of Konélab kits. The animals whose glycemia before treatment was below 3 g/l are systematically excluded from the study.
For each group, the mean glucose and triglyceride levels after treatment are calculated and the results are expressed as the percentage variation of these means relative to the control group after verification of the homogeneity of the means before treatment.

| SMILES | Gly (decrease in the glycemia level; percentage variation of mean serum glucose relative to the control group) [%] | TG (decrease in the triglyceride level; percentage variation of mean serum triglycerides relative to the control group) [%] |
| --- | --- | --- |
| CC1C(=O)N(c2cccc(F)c2)C(=S)N1c1ccc(Oc2ccccc2)cc1 (centres unmarked) [Example 20, 3-(3-Fluorophenyl)-5-methyl-1-(4-phenoxyphenyl)-2-thioxoimidazolidin-4-one] | −47 | −47 |
| COc1ccc(N2C(=O)C(C)(C)N(c3ccc(Oc4ccccc4)cc3)C2=S)cc1 [Example 30, 5,5-Dimethyl-3-(4-methoxyphenyl)-1-(4-phenoxyphenyl)-2-thioxoimidazolidin-4-one] | −54 | −53 |
| COc1ccc(N2C(=O)C(C)N(c3ccc(OCc4ccccc4)cc3)C2=S)cc1 (centres unmarked) [Example 139] | −36 | −32 |
| CC1C(=O)N(c2ccc(Cc3ccccc3)cc2)C(=S)N1c1ccccc1 (centres unmarked) [Example 185, 5-Methyl-1-phenyl-3-[4-(phenylmethyl)phenyl]-2-thioxoimidazolidin-4-one] | −57 | −39 |
| C=CCN1CC(=O)N(c2ccc(Cc3ccccc3)cc2)C1=S [Example 190, 3-[4-(Phenylmethyl)phenyl]-1-(2-propenyl)-2-thioxoimidazolidin-4-one] | −58 | −53 |
| COc1ccc(N2C(=O)CN(c3ccc(Cc4ccccc4)cc3)C2=S)cc1 [Example 195, 3-(4-Methoxyphenyl)-1-[4-(phenylmethyl)phenyl]-2-thioxoimidazolidin-4-one] | −53 | −46 |
| COc1ccc(N2C(=O)C(C)N(c3ccc(Cc4ccccc4)cc3)C2=S)cc1 (centres unmarked) [Example 200, 3-(4-Methoxyphenyl)-5-methyl-1-[4-(phenylmethyl)phenyl]-2-thioxoimidazolidin-4-one] | −63 | −58 |
